Laboratory results taken from ChEMBL document CHEMBL3124851, “A perspective on natural products research and ethnopharmacology in Mexico: the eagle and the serpent on the prickly pear cactus” (J Nat Prod, 2014).
Blank lines part the entries; values can stand above or below the molecule they belong to.

Columns and labels:
Rattus norvegicus = species on record: Rattus norvegicus; experiment: Increase in dopamine level in rat striatum by microdialysis assay (reference value: 4.2 nM); format: functional
Mus musculus [1] = experiment: Antinociceptive activity in mouse at 3 mg/kg, ip by writhing test; format: functional; conditions: route intraperitoneal
D(3) dopamine receptor = D(3) dopamine receptor (Homo sapiens, UniProt P35462); experiment: Agonist activity at dopamine D3 receptor (unknown origin)
[2] = Stimulation of dopaminergic neurons in rat posterior ventral tegmental area relative to ethanol; format: functional
Ileum = experiment: Spasmolytic activity in guinea pig ileum; format: functional, tissue-based; conditions: Cavia porcellus
Mus musculus [3] = experiment: Antinociceptive activity in mouse at 2 mg/kg, ip by writhing test; format: functional; conditions: route intraperitoneal

D(3) dopamine receptor, sequence (P35462 whole entry): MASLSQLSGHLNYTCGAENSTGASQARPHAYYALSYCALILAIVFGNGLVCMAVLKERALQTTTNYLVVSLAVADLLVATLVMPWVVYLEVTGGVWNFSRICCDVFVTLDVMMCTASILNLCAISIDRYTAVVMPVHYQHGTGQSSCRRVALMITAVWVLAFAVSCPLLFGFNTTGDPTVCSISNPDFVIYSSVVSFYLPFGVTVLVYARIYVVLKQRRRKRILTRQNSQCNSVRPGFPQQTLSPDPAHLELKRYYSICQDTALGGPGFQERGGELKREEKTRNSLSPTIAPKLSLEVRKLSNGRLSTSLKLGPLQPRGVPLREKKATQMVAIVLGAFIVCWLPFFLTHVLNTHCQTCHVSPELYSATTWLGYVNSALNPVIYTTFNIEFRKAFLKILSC

SMILES: C[C@H]1NCCc2cc(O)c(O)cc21
Activity (Rattus norvegicus): 300 nM

SMILES: C[C@H]1[C@H](C)CC[C@]2(C(=O)O)CC[C@]3(C)C(=CC[C@@H]4[C@@]5(C)CC[C@H](O)C(C)(C)[C@@H]5CC[C@]43C)[C@H]12 [URSOLIC ACID]
Activity (Mus musculus [1]): 50%

SMILES: C[C@@H]1NCCc2cc(O)c(O)cc21
Ki (D(3) dopamine receptor): 500 nM
Activity (Rattus norvegicus): 21.5 nM

SMILES: CC1NCCc2cc(O)c(O)cc21 (configuration not stated)
fold change (FC) [2]: 1000000

IC50 (Ileum): 1100 nM
SMILES: COc1ccc(-c2cc(=O)c3c(O)cc(O)cc3o2)cc1 [ACACETIN]
Activity (Mus musculus [3]): 50%
